Assay [1] is described as follows: adjuvant-induced arthritis test (Newbould). Format: in vivo, rat. The source says: Selected compounds were further subjected to advanced evaluations. Specifically, in view of the interesting activity of compounds 1 and 9, those compounds were further subjected to the adjuvant-induced arthritis test. This test requires one month (from day 0 to day 31). In the first seventeen days (0-17), the disease is in a developing stage, while for the remainder of the month (18-31) the disease is fully developed.
The method is essentially that of Newbould, Brit. J. Pharmacol. 21: 127, 1963. The test compounds were studied in the developing arthritis state and in the established arthritic state. Separate groups of twelve rats were administered the compounds orally using methylcellulose as the vehicle. In the study on the developing disease, administration of the test compounds begins on day 1 and on day 2 each animal is injected with 0.05 ml/kg of a 0.5% suspension of heat-killed Mycobacterium tuberculosis into the planter surface of the left hind paw. Foot volumes were measured by a water displacement device on the day of administration of the Mycobacterium and again on days 3, 10 and 17. The test compounds were administered once daily. Body weights were recorded daily and the animals were examined for the spread of the inflammation and the degree of secondary lesions. For study in the established disease, another group of rats are injected with the Mycobacterium and foot volumes are measured. After twenty days volumes are again measured and administration of the test compounds begins and continues for eleven days. Foot volume measurements are repeated on day 27 and day 31. The extent of the spread of the inflammation and the degree of lesions are recorded daily as are the body weights. The effect of the test compounds is measured by the percentage reduction in left hind paw volumes as compared to the hind paw volumes of the control groups.

Assay [2] can be described thus: carrageenin-induced edema in the hind paw of the rat (modified Winter et al.). Format: in vivo. How it is done: (§1) The procedure used for measuring the inhibition of carrageenin-induced edema is a slight modification of the method of Winter et al., Proc. Soc. Explt. Biol. Med. 111: 544 (1962). The device used for measurement of the paw volume is an adaptation of the water displacement procedure described by Adamkiewicz et al., Can. J. Biochem. Physiol. 33: 332 (1955). The above compounds were studied for their effectiveness in preventing the edema caused by the intraplantar injection of 0.05 ml of a sterile 1.0% solution of carrageenin. Compounds were administered orally, except when indicated as intraperitoneally (i.p.), one hour prior to the injection of the carrageenin into the left hind paw of rats. At peak swelling time (3 hours) the volume of edema was calculated by differential paw volumes.
Table I (in which Ph=phenyl) sets forth results obtained at the indicated dosages with compounds (or their salts) of the formula [drawing 8]
Following the procedure set forth in Example 4, hydrated compounds according to the following formula were evaluated for antiinflammatory effect with the results shown in Table II: [drawing 9]
Certain of the compounds of the invention were further tested to determine their ED50 values. […] Typical results of these tests appear in Table III.
(The carrageenan paw model is a standard test of acute inflammation.)

Assay [3] can be described thus: adrenalectomized assay (carrageenin edema in adrenalectomized rats). Format: in vivo, Adrenalectomized Sprague Dawley Male Rats. The note with it: Rattus norvegicus, po, 3 h, read-out: % Reduction (adrenalectomized rats). How it is done:
as §1
Next, certain of the compounds were subjected to a secondary screen designated the adrenalectomized assay. In this series of tests, the method used was identical to that described above, except that the animals used were adrenalectomized several days prior to assay. Since the results in the nonadrenalectomized animals were similar to those obtained in the adrenalectromized animals, it can be inferred that the antiinflammatory activity of the test compounds was not caused by the release of endogeneous adrenocortical steriods.

The mark [4] stands for this setting: Rattus norvegicus, po, 3 h, Table I, 50 mg/kg, oral, 1 h before carrageenin, 3 h, read-out: Reduction % (carrageenin edema).
[5] abbreviates: Rattus norvegicus, po, 3 h, Table I, 25 mg/kg, oral, 1 h before carrageenin, 3 h, read-out: Reduction % (carrageenin edema).
Setting [6] is: Rattus norvegicus, po, 3 h, Table I, 40 mg/kg, oral, 1 h before carrageenin, 3 h, read-out: Reduction % (carrageenin edema).

The values that follow come from patent publication US4160768A, “Anti-inflammatory 3-benzofuranyl imidazothiazole” (Diamond Shamrock Corporation, priority 1978, dated 1979).

As a reminder, the ED50 is the dose at which the effect has come halfway, by size or by number of responders. A higher ED50 goes with a need for a large dose.

Structures can show the parent of a compound that is named as a salt. Where two headings read alike, the source gives them in different places.

For the compound `C1=C(c2ccccc2)N2CCN=C2S1` [Compound 1], the “% reduction in swelling, hind paws” value in assay [1] (20 mg/kg, day 3, developing (prophylactic)) was found to be 18%; in assay [1] (20 mg/kg, day 10, developing (prophylactic)) it was 13%; in assay [1] (20 mg/kg, day 17, developing (prophylactic)), 18%; in assay [1] (20 mg/kg, day 20, developed (therapeutic)), 5%; in assay [1] (20 mg/kg, day 27, developed (therapeutic)), 0%; in assay [1] (20 mg/kg, day 31, developed (therapeutic)) it was 0%. Also, the “% reduction in swelling, hind paws” value is listed as 10% in assay [1] (40 mg/kg, day 3, developing (prophylactic)); 21% in assay [1] (40 mg/kg, day 10, developing (prophylactic)); 43% in assay [1] (40 mg/kg, day 17, developing (prophylactic)); 4% in assay [1] (40 mg/kg, day 20, developed (therapeutic)); 14% in assay [1] (40 mg/kg, day 27, developed (therapeutic)); 8% in assay [1] (40 mg/kg, day 31, developed (therapeutic)). Moreover, the inhibition in vivo at 50 mg/kg in assay [2] (setting [4]) came to 47%; in assay [3] it was 32%. The compound also came in with an ED50 in assay [2] (Rattus norvegicus, po, 3 h, dose which reduced edema formation by about 25% or more vs mean control in 50% of the animals) of 25 mg/kg.
Turning to `Cc1ccc(C2=CSC3=NCCN23)cc1C` [Compound 2], the inhibition in vivo at 50 mg/kg in assay [2] (setting [4]) is 27%.
Take `CSC1=C(C(C)(C)C)N2CCN=C2S1` [Compound 3, 2-methylthio-3-t-butyl-5,6-dihydro-4H-imidazo-[2,1-b] thiazole hydrobromide]: the inhibition in vivo at 50 mg/kg in assay [2] (setting [4]) is 26%.
On to `CCC1=C(c2ccccc2)N2CCN=C2S1` [Compound 4], for which the results for the inhibition in vivo at 25 mg/kg in assay [2] (setting [5]) and in assay [3] were 41% and 31%, respectively.
As to `CCC1=C(c2ccc(Cl)cc2)N2CCN=C2S1` [Compound 5], the results for the inhibition in vivo at 25 mg/kg in assay [2] (setting [5]) and in assay [3] were 33% and 15%, respectively.
For the compound `CC1=C(c2ccc(Cl)cc2)N2CCN=C2S1` [Compound 6], the inhibition in vivo at 25 mg/kg came to 45% in assay [2] (setting [5]) and 19% in assay [3].
For the compound `Brc1ccc(C2=CSC3=NCCN23)cc1` [Compound 7], the inhibition in vivo at 50 mg/kg in assay [2] (setting [4]) turned out to be 70%.
On to `CC(C)(C)C1=CSC2=NCCN12` [Compound 8], for which the inhibition in vivo at 50 mg/kg in assay [2] (setting [4]) was 56%. The inhibition in vivo at 25 mg/kg in assay [3] came out at 23%.
Take `C1=C(c2cccc3ccccc23)N2CCN=C2S1` [Compound 10]: the inhibition in vivo at 50 mg/kg in assay [2] (setting [4]) was 58%; in assay [3], 18%.
Turning to `CC(C)(C)C1=CSC2=NCCN12` [Compound 11], the “Reduction (%) (carrageenin edema)” value in assay [2] (Table I, 50 mg/kg, oral, 1 h before carrageenin, 3 h, 50 mg/kg) is given as 48%.
As for `CC1CN2C(C(C)(C)C)=CSC2=N1` (stereo not drawn) [Compound 12], the inhibition in vivo at 50 mg/kg in assay [2] (setting [4]) came to 54%.
Turning to `CC1=CSC2=NC(C)CN12` (stereo not drawn) [Compound 13], the inhibition in vivo at 50 mg/kg in assay [2] (setting [4]) is 24%.
The same measure, in the same setting: as for `CC1=C(c2ccccc2)N2CCN=C2S1` [Compound 14], the figure is 49%.
`CC1=C(c2ccccc2)SC2=NCCN21` [Compound 15]: the inhibition in vivo at 50 mg/kg in assay [2] (setting [4]) turned out to be 53%.
As for `CC1CN2C(c3ccc(Cl)cc3)=CSC2=N1` (stereo not drawn) [Compound 16], the inhibition in vivo at 50 mg/kg was determined as 58% in assay [2] (setting [4]) and 16% in assay [3].
For `CC1CN2C(c3ccc([N+](=O)[O-])cc3)=CSC2=N1` (stereo not drawn) [Compound 17], in that order: 48% and 60%.
In the case of `CC1CN2C(c3ccc(Cl)c(Cl)c3)=CSC2=N1` (stereo not drawn) [Compound 18], the inhibition in vivo at 50 mg/kg in assay [2] (setting [4]) was 42%.
In the case of `O=C(O)CC1=C(c2ccccc2)N2CCN=C2S1` [Compound 19, 3-phenyl-5,6-dihydro-4H-imidazo[2,1-b] thiazo-2-yl-acetic acid hydrobromide], the inhibition in vivo at 100 mg/kg in assay [2] (Rattus norvegicus, ip, 3 h, Table I, 100 mg/kg i.p., 1 h before carrageenin, 3 h, read-out: Reduction % (carrageenin edema)) was determined as 24%.
On to `Clc1ccc(C[N+]2=C3SC=C(c4ccccc4)N3CC2)cc1Cl` [Compound 20], for which the inhibition in vivo at 20 mg/kg in assay [2] (Rattus norvegicus, po, 3 h, Table I, 20 mg/kg, oral, 1 h before carrageenin, 3 h, read-out: Reduction % (carrageenin edema)) was 36%.
Regarding `Brc1ccc(C2=CSC3=NCCN23)cc1` [Compound 21], the inhibition in vivo at 40 mg/kg in assay [2] (setting [6]) was determined as 49%.
Take `C#CC[N+]1=C2SC=C(c3ccc(Br)cc3)N2CC1` [Compound 22]: the inhibition in vivo at 100 mg/kg in assay [2] (Rattus norvegicus, po, 3 h, Table I, 100 mg/kg, oral, 1 h before carrageenin, 3 h, read-out: Reduction % (carrageenin edema)) worked out at 36%.
Turning to `C#CC(C)[N+]1=C2SC=C(c3ccc(Br)cc3)N2CC1` (stereo not drawn) [Compound 23], the inhibition in vivo at 40 mg/kg in assay [2] (setting [6]) came out at 27%.
In the case of `ClCC=CC[N+]1=C2SC=C(c3ccc(Br)cc3)N2CC1` [Compound 24], in assay [2] (Rattus norvegicus, po, 3 h, Table I, 60 mg/kg, oral, 1 h before carrageenin, 3 h, read-out: Reduction % (carrageenin edema)), the inhibition in vivo at 60 mg/kg amounted to 20%.
Turning to `CC1=CSC2=NCCN12` [Compound 25], the inhibition in vivo at 150 mg/kg in assay [2] (Rattus norvegicus, po, 3 h, Table I, 150 mg/kg, oral, 1 h before carrageenin, 3 h, read-out: Reduction % (carrageenin edema)) stood at 44%.
Take `C#CC[N+]1=C2SC=C(C)N2CC1` [Compound 26]: the inhibition in vivo at 40 mg/kg in assay [2] (setting [6]) turned out to be 31%.
Take `C1=C(c2cc3ccccc3o2)N2CCN=C2S1` [Compound 27, 3-(2-benzofuranyl)-5,6-dihydro-4H-imidazo[2,1-b] thiazole]: the inhibition in vivo at 40 mg/kg in assay [2] (setting [6]) worked out at 40%.
Consider `Clc1ccc(C2=CSC3=NCCCN23)cc1` [Compound 28], for which the inhibition in vivo at 25 mg/kg in assay [2] (setting [5]) turned out to be 29%.
As for `CCC1=C(c2ccccc2)N2CCCN=C2S1` [Compound 29, 2-ethyl-3-phenyl-4,5,6,7-tetrahydrothiazole[3,2-a] pyrimidine hydrobromide], in assay [2] (setting [4]), the inhibition in vivo at 50 mg/kg is 76%. For the same compound, in assay [3], the inhibition in vivo at 25 mg/kg worked out at 18%.
`C1=C(c2ccccc2)N2CCCN=C2S1` [Compound 30]: in assay [2] (setting [6]), the inhibition in vivo at 40 mg/kg was 25%.
Take `CC1=C(c2ccccc2)N2CCCN=C2S1` [Compound 31]: the inhibition in vivo at 40 mg/kg in assay [2] (setting [6]) was determined as 48%.
As to `O=[N+]([O-])c1ccc(C2=CSC3=NCCCN23)cc1` [Compound 32], in assay [2] (setting [5]), the inhibition in vivo at 25 mg/kg stood at 20%.
Consider `CC1=C(c2ccc(Cl)cc2)N2CCCN=C2S1` [Compound 33], for which, in assay [2] (Rattus norvegicus, po, 3 h, Table I, 10 mg/kg, oral, 1 h before carrageenin, 3 h, read-out: Reduction % (carrageenin edema)), the inhibition in vivo at 10 mg/kg is 22%.
Consider `OC1(c2ccccc2)CSC2=NCCN21` (stereo not drawn) [Compound 34], for which the “Reduction (%) (carrageenin edema)” value in assay [2] (Table II, 100 mg/kg, oral) turned out to be 70%.
In the case of `CC1SC2=NCCN2C1(O)c1ccccc1` (stereo not drawn) [Compound 35], in assay [2] (Table II, 150 mg/kg, oral), the “Reduction (%) (carrageenin edema)” value is 68%.
In the case of `OC1(c2ccc(Cl)cc2)CSC2=NCCN21` (stereo not drawn) [Compound 36], the “Reduction (%) (carrageenin edema)” value in assay [2] (Table II, 25 mg/kg, oral) is 57%.
Consider `OC1(c2ccccc2)CSC2=NCCCN21` (stereo not drawn) [Compound 37], for which, in assay [2] (Table II, 50 mg/kg, oral), the “Reduction (%) (carrageenin edema)” value stood at 52%.
As to `OC1(c2ccc(Cl)cc2)CSC2=NCCCN21` (stereo not drawn) [Compound 38], the “Reduction (%) (carrageenin edema)” value in assay [2] (Table II, 100 mg/kg, oral) was determined as 76%.
In the case of `COc1ccc(C2(O)CSC3=NCCCN32)cc1` (stereo not drawn) [Compound 39], the “Reduction (%) (carrageenin edema)” value in assay [2] (Table II, 40 mg/kg, oral) is 27%.
